Where a name gives a salt, the structure may show the parent alone.
Test system: Acinetobacter baumannii ATCC 17961
Experiment: Antimicrobial susceptibility testing: 90% growth inhibitory concentration (IC90) determination
Type: cell-based
Conditions: ATCC17961, Acinetobacter baumannii ATCC 17961, Iso-Sensitest broth, read-out: ATCC 17961 IC90
Description: Antimicrobial Susceptibility Testing:
90% Growth Inhibitory Concentration (IC90) Determination
The in vitro antimicrobial activity of the compounds was determined according to the following procedure:
The assay used a 10-points Iso-Sensitest broth medium to measure quantitatively the in vitro activity of the compounds against Acinetobacter baumannii ATCC 17961.
Stock compounds in DMSO were serially twofold diluted (e.g. range from 50 to 0.097 μM final concentration) in 384 wells microtiter plates and inoculated with 49 μl the bacterial suspension in Iso-Sensitest medium to have a final cell concentration of ˜5×10^(5) CFU/ml in a final volume/well of 50 ul/well. Microtiter plates were incubated at 35±2° C.
Bacterial cell growth was determined with the measurement of optical density at X=600 nm each 20 minutes over a time course of 16 h. Growth inhibition was calculated during the logarithmic growth of the bacterial cells with determination of the concentration inhibiting 50% (IC50) and 90% (IC90) of the growth.
Table 1 provides the 90% growth inhibitory concentrations (IC90) in micromoles per liter of the compounds of present disclosure obtained against the strain Acinetobacter baumannii ATCC 17961.

| SMILES | IC90 [nM] |
| --- | --- |
| CN(C(=O)c1ccc(NC(=O)c2ncc(-c3cn(C4CC4(F)F)nc3C(F)(F)F)n2C)cc1Cl)C1CCNCC1 (centres unmarked) [Example 368, N-(3-chloro-4-(methyl(piperidin-4-yl)carbamoyl)phenyl)-5-(1-(2,2-difluorocyclopropyl)-3-(trifluoromethyl)-1H-pyrazol-4-yl)-1-methyl-1H-imidazole-2-carboxamide formate] | 484 |
| C#CCn1cc(-c2cnc(C(=O)Nc3ccc(C(=O)N[C@H]4[C@@H]5CN(C(=O)N[C@@H]6CNC[C@H]6O)C[C@@H]54)c(Cl)c3)n2C)c(C(F)(F)F)n1 [Example 384, (1R,5S,6s)-6-(2-chloro-4-(1-methyl-5-(1-(prop-2-yn-1-yl)-3-(trifluoromethyl)-1H-pyrazol-4-yl)-1H-imidazole-2-carboxamido)benzamido)-N-((3R,4R)-4-hydroxypyrrolidin-3-yl)-3-azabicyclo[3.1.0]hexane-3-carboxamide formate] | 64 |
| C=C(C)Cn1cc(-c2cnc(C(=O)Nc3ccc(C(=O)NCCCN)c(Cl)c3)n2C)c(C(F)(F)F)n1 [Example 255, N-(4-((3-aminopropyl)carbamoyl)-3-chlorophenyl)-1-methyl-5-(1-(2-methylallyl)-3-(trifluoromethyl)-1H-pyrazol-4-yl)-1H-imidazole-2-carboxamide tris(2,2,2-trifluoroacetate)] | 312 |
| Cn1c(-c2cn(C3CC3)nc2C(F)(F)F)cnc1C(=O)Nc1ccc(C(=O)N2CCN(C(=O)[C@H]3CCCCN3)CC2)c(Cl)c1 [Example 273, (R)-N-(3-chloro-4-(4-(piperidine-2-carbonyl)piperazine-1-carbonyl)phenyl)-5-(1-cyclopropyl-3-(trifluoromethyl)-1H-pyrazol-4-yl)-1-methyl-1H-imidazole-2-carboxamide hydrochloride] | 336 |
| Cn1c(-c2cn(CC#N)nc2C(F)(F)F)cnc1C(=O)Nc1ccc(C(=O)N[C@H]2C[C@@H](NC(=O)N3CCC(CN)C3)C2)c(Cl)c1 (some centres unmarked) [Example 359, N-[4-[[3-[[3-(aminomethyl)pyrrolidine-1-carbonyl]amino]cyclobutyl]car-bamoyl]-3-chloro-phenyl]-5-[1-(cyanomethyl)-3-(trifluoromethyl)pyrazol-4-yl]-1-methyl-imidazole-2-carboxamide; formic acid] | 467 |
| Cn1c(-c2cn(C(F)F)nc2C(F)(F)F)cnc1C(=O)Nc1ccc(C(=O)N2CCN(C(=O)C3CCNCC3)CC2)c(Cl)c1 [Example 116, N-[3-chloro-4-[4-(piperidine-4-carbonyl)piperazine-1-carbonyl]phenyl]-5-[1-(difluoromethyl)-3-(trifluoromethyl)pyrazol-4-yl]-1-methylimidazole-2-carboxamide;hydrochloride] | 487 |
| C#CCn1cc(-c2cnc(C(=O)Nc3ccc(C(=O)N4CCN(C(=O)NCCNC)CC4)c(Cl)c3)n2C)c(C(F)(F)F)n1 [Example 76, 4-[2-chloro-4-[[1-methyl-5-[1-prop-2-ynyl-3-(trifluoromethyl)pyrazol-4-yl]imidazole-2-carbonyl]amino]benzoyl]-N-[2-(methylamino)ethyl]piperazine-1-carboxamide] | 247 |
| Cn1c(-c2cn(CC3CCC3)nc2C(F)(F)F)cnc1C(=O)Nc1ccc(C(=O)N[C@H]2[C@@H]3CN(C(=O)N[C@@H]4CNC[C@H]4O)C[C@@H]32)c(Cl)c1 [Example 388, (1R,5S,6s)-6-(2-chloro-4-(5-(1-(cyclobutylmethyl)-3-(trifluoromethyl)-1H-pyrazol-4-yl)-1-methyl-1H-imidazole-2-carboxamido)benzamido)-N-((3R,4R)-4-hydroxypyrrolidin-3-yl)-3-azabicyclo[3.1.0]hexane-3-carboxamide formate] | 170 |
| Cn1c(-c2cn(CC3CC3(F)F)nc2C(F)(F)F)cnc1C(=O)Nc1ccc(C(=O)NC2C3CN(C(=O)C4CCNCC4)CC32)c(Cl)c1 (centres unmarked) [Example 220, N-(3-chloro-4-((3-(piperidine-4-carbonyl)-3-azabicyclo[3.1.0]hexan-6-yl)carbamoyl)phenyl)-5-(1-((2,2-difluorocyclopropyl)methyl)-3-(trifluoromethyl)-1H-pyrazol-4-yl)-1-methyl-1H-imidazole-2-carboxamide formate] | 245 |
| Cn1c(-c2cn(CC3CC3)nc2C(F)(F)F)cnc1C(=O)Nc1ccc(C(=O)N2CCN(C(=O)[C@@H]3CC[C@@H](N)C3)CC2)c(Cl)c1 [Example 206, N-(4-(4-((1R,3R)-3-aminocyclopentane-1-carbonyl)piperazine-1-carbonyl)-3-chlorophenyl)-5-(1-(cyclopropylmethyl)-3-(trifluoromethyl)-1H-pyrazol-4-yl)-1-methyl-1H-imidazole-2-carboxamide] | 224 |

The remaining lines, values ahead:

| IC90 [nM] | SMILES |
| --- | --- |
| 2250 | Cc1cc(NC(=O)c2ncc(-c3cn(CC#N)nc3C(F)(F)F)n2C)cc(F)c1C(=O)N1CCN(C(=O)C2(O)CCCNC2)CC1 (centres unmarked) [Example 120, 5-[1-(cyanomethyl)-3-(trifluoromethyl)pyrazol-4-yl]-N-[3-fluoro-4-[4-(3-hydroxypiperidine-3-carbonyl)piperazine-1-carbonyl]-5-methylphenyl]-1-methylimidazole-2-carboxamide] |
| 733 | Cn1c(-c2cn(CC(C)(CO)CCl)nc2C(F)(F)F)cnc1C(=O)Nc1ccc(C(=O)N2CCN(C(=O)C3CCNCC3)CC2)c(Cl)c1 (centres unmarked) [Example 101, 5-[1-[2-(chloromethyl)-3-hydroxy-2-methylpropyl]-3-(trifluoromethyl)pyrazol-4-yl]-N-[3-chloro-4-[4-(piperidine-4-carbonyl)piperazine-1-carbonyl]phenyl]-1-methylimidazole-2-carboxamide;formic acid] |
| 442 | Cn1c(-c2cn(CC#N)nc2C(F)(F)F)cnc1C(=O)Nc1ccc(C(=O)N2CCN(C(=O)NCC3(O)CNC3)CC2)c(Cl)c1 [Example 343, 4-[2-chloro-4-[[5-[1-(cyanomethyl)-3-(trifluoromethyl)pyrazol-4-yl]-1-methyl-imidazole-2-carbonyl]amino]benzoyl]-N-[(3-hydroxyazetidin-3-yl)methyl]piperazine-1-carboxamide; formic acid] |
| 2550 | Cn1c(-c2cn(CC#N)nc2C(F)(F)F)cnc1C(=O)Nc1ccc(C(=O)N2CCN(C(=O)[C@H]3C[C@@H](N)C3)CC2)c(Cl)c1 [Example 73, N-[4-[4-(3-aminocyclobutanecarbonyl)piperazine-1-carbonyl]-3-chlorophenyl]-5-[1-(cyanomethyl)-3-(trifluoromethyl)pyrazol-4-yl]-1-methylimidazole-2-carboxamide;2,2,2-trifluoroacetic acid] |
| 362 | Cn1c(-c2cn(CCC(F)(F)F)nc2C(F)(F)F)cnc1C(=O)Nc1ccc(C(=O)N2CCN(C(=O)C3CCNCC3)CC2)c(Cl)c1 [Example 98, N-[3-chloro-4-[4-(piperidine-4-carbonyl)piperazine-1-carbonyl]phenyl]-1-methyl-5-[3-(trifluoromethyl)-1-(3,3,3-trifluoropropyl)pyrazol-4-yl]imidazole-2-carboxamide;hydrochloride] |
| 887 | CCc1cc(NC(=O)c2ncc(-c3cn(CC#N)nc3C(F)(F)F)n2C)ccc1C(=O)N1CCN(C(=O)N2CC3CC2CN3)CC1 (centres unmarked) [Example 141, 5-[1-(cyanomethyl)-3-(trifluoromethyl)pyrazol-4-yl]-N-[4-[4-(2,5-diazabicyclo[2.2.1]heptane-2-carbonyl)piperazine-1-carbonyl]-3-ethylphenyl]-1-methylimidazole-2-carboxamide;formic acid] |
| 187 | Cn1c(-c2cn(CC3CCC3)nc2C(F)(F)F)cnc1C(=O)Nc1ccc(C(=O)N2CCN(C(=O)C3CCNCC3)CC2)c(Cl)c1 [Example 113, N-[3-chloro-4-[4-(piperidine-4-carbonyl)piperazine-1-carbonyl]phenyl]-5-[1-(cyclobutylmethyl)-3-(trifluoromethyl)pyrazol-4-yl]-1-methylimidazole-2-carboxamide;hydrochloride] |
| 607 | Cn1c(-c2cn(CC#CCN)nc2C(F)(F)F)cnc1C(=O)Nc1ccc(C(=O)N2CCN(C(=O)C3CCNCC3)CC2)c(Cl)c1 [Example 17, 5-(1-(4-aminobut-2-yn-1-yl)-3-(trifluoromethyl)-1H-pyrazol-4-yl)-N-(3-chloro-4-(4-(piperidine-4-carbonyl)piperazine-1-carbonyl)phenyl)-1-methyl-1H-imidazole-2-carboxamide dihydrochloride] |
| 428 | CCc1cc(NC(=O)c2ncc(-c3cn(CC#N)nc3C(F)(F)F)n2C)ccc1C(=O)N1CCN(C(=O)[C@H]2C[C@H](N)C2)CC1 [Example 340, N-[4-[4-(3-aminocyclobutanecarbonyl)piper-azine-1-carbonyl]-3-ethyl-phenyl]-5-[1-(cyanomethyl)-3-(trifluoromethyl)pyrazol-4-yl]-1-methyl-imidazole-2-carboxamide; formic acid] |
| 161 | C#CCn1cc(-c2cnc(C(=O)Nc3ccc(C(=O)N4CCN(C(=O)N[C@H]5CCNC5)CC4)c(Cl)c3)n2C)c(C(F)(F)F)n1 [Example 53, (S)-4-(2-chloro-4-(1-methyl-5-[1-(prop-2-yn-1-yl)-3-(trifluoromethyl)-1H-pyrazol-4-yl)-1H-imidazole-2-carboxamido)benzoyl)-N-(pyrrolidin-3-yl)piperazine-1-carboxamide hydrochloride] |
